IC50 and inhibition data for six compounds are collected here from US20250368649A1, “TETRAHYDROPYRIDOPYRIMIDINE PAN-KRAS INHIBITORS” (Mirati Therapeutics, Inc., priority 2022, published 2025).

In test [1] the test system is MKN1 cells. The test is described as follows: Inhibition of KRas-mediated phosphorylation of ERK (Cisbio HTRF pERK), MKN1 cells. It counts as cell-based. The conditions noted are these: Homo sapiens, MKN-1, 3 hour compound incubation, Cisbio pERK HTRF. An outline of the steps:
(§1)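 Growth medium is RPMI with 10% FBS, and each well receives 6,000 cells on the first day of the protocol.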

For test [2], the target named is KRas G12R (Homo sapiens, UniProt P01116, G12R). The test is described as follows: biochemical. The conditions noted are these: Binding to KRas (IC50 nM) G12R, TR-FRET displacement, KRas G12R. In general terms: TR-FRET usually uses a lanthanide donor and a delayed reading to cut background.
In test [3] the test system is H727 cells. In words: Inhibition of KRas-mediated phosphorylation of ERK (Cisbio HTRF pERK), H727 cells. Format: cell-based. The conditions noted are these: Homo sapiens, NCI-H727, 3 h, 3 hr compound incubation, Cisbio pERK HTRF.
In test [4] the target is KRas G12A (Homo sapiens, UniProt P01116, G12A). Format: binding. Conditions: single point, 10 nM compound, read-out: Binding to KRas (% inhibition at 10 nM) G12A.
Test [5] concerns the target KRas G12S (Homo sapiens, UniProt P01116, G12S). Format: binding. The conditions noted are these: single point, 10 nM compound, read-out: Binding to KRas (% inhibition at 10 nM) G12S.
The target in test [6] is KRas WT (Homo sapiens, UniProt P01116). The test is described as follows: KRas binding assay (TR-FRET displacement), KRas WT. Conditions: single point, 10 nM compound.
In test [7] the test system is PSN1 cells. In words: Inhibition of KRas-mediated phosphorylation of ERK (Cisbio HTRF pERK), PSN1 cells. The conditions noted are these: Homo sapiens, PSN1, 3 h, 3 hour compound incubation, Cisbio pERK HTRF. It counts as cell-based. An outline of the steps: as §1
Test [8] addresses KRas G12V (Homo sapiens, UniProt P01116, G12V). In words: biochemical. The conditions noted are these: Binding to KRas (IC50 nM) G12V, TR-FRET displacement, KRas G12V.
The test system of test [9] is A549 cells. In words: Inhibition of KRas-mediated phosphorylation of ERK (Cisbio HTRF pERK), A549 cells. The conditions noted are these: Homo sapiens, A549, 3 h, 3 hr compound incubation, Cisbio pERK HTRF. Format: cell-based.
For test [10], the target named is KRas G13D (Homo sapiens, UniProt P01116, G13D). It counts as binding. Conditions: single point, 10 nM compound, read-out: Binding to KRas (% inhibition at 10 nM) G13D.
Test [11] concerns H460 cells. The test is described as follows: Inhibition of KRas-mediated phosphorylation of ERK (Cisbio HTRF pERK), H460 cells. It counts as cell-based. Conditions: Homo sapiens, NCI-H460, 3 h, 3 hr compound incubation, Cisbio pERK HTRF.
Test [12] concerns the target KRas Q61H (Homo sapiens, UniProt P01116, Q61H). In words: KRas binding assay (TR-FRET displacement), KRas Q61H. Conditions: single point, 10 nM compound.
In test [13] the target is KRas G12D (Homo sapiens, UniProt P01116, G12D). In words: biochemical. Conditions: Binding to KRas (IC50 nM) G12D, TR-FRET displacement, KRas G12D.
Test [14] concerns HCT116 cells. In words: Inhibition of KRas-mediated phosphorylation of ERK (Cisbio HTRF pERK), HCT116 cells. The conditions noted are these: Homo sapiens, HCT-116, 3 h, 3 hr compound incubation, Cisbio pERK HTRF. It counts as cell-based.
The test system of test [15] is ASPC1 cells. The test is described as follows: Inhibition of KRas-mediated phosphorylation of ERK (Cisbio HTRF pERK), ASPC1 cells. It counts as cell-based. The conditions noted are these: Homo sapiens, ASPC1, 3 h, AsPC-1 cells; 3 hr compound incubation; Cisbio pERK HTRF.
Test [16] deals with KRas G12C (Homo sapiens, UniProt P01116, G12C). It counts as binding. Conditions: single point, 10 nM compound, read-out: Binding to KRas (% inhibition at 10 nM) G12C.
Sequence of KRas G12C (P01116 1-169 isoform P01116-2 G12C): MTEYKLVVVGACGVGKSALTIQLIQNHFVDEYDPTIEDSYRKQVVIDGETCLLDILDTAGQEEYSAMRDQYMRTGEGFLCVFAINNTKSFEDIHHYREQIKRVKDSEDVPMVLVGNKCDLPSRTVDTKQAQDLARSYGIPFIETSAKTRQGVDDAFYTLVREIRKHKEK

Sequence of KRas G13D (P01116 1-169 isoform P01116-2 G13D): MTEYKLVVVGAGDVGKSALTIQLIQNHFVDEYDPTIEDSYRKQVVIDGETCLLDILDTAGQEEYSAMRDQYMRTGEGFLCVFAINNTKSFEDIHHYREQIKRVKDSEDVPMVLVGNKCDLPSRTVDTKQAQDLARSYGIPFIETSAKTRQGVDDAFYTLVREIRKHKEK
Sequence of KRas G12R (P01116 1-169 isoform P01116-2 G12R): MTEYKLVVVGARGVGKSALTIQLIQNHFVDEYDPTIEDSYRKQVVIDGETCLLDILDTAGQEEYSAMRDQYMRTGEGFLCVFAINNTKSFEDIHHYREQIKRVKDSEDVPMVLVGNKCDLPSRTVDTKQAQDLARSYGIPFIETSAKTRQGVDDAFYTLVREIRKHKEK
Sequence of KRas G12S (P01116 1-169 isoform P01116-2 G12S): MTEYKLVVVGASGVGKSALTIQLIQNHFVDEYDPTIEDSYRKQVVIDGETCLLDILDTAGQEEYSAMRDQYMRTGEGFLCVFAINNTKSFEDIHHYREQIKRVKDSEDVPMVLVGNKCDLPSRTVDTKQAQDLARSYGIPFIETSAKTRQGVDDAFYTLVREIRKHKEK
Sequence of KRas WT (P01116 1-169 isoform P01116-2): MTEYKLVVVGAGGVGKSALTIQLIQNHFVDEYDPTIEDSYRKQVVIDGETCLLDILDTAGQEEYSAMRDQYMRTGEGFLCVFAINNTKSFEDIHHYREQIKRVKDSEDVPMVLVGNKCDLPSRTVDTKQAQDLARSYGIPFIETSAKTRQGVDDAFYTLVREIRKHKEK
Sequence of KRas G12V (P01116 1-169 isoform P01116-2 G12V): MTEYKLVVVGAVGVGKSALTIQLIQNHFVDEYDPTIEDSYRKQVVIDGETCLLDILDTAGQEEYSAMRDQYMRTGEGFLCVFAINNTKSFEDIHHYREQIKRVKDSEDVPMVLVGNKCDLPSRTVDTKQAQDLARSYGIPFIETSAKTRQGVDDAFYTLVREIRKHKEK
Sequence of KRas Q61H (P01116 1-169 isoform P01116-2 Q61H): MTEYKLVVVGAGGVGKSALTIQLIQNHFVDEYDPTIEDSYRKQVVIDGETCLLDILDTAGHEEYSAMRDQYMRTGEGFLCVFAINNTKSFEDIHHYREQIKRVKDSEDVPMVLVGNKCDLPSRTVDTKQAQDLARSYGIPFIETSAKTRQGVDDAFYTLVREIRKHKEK
Sequence of KRas G12A (P01116 1-169 isoform P01116-2 G12A): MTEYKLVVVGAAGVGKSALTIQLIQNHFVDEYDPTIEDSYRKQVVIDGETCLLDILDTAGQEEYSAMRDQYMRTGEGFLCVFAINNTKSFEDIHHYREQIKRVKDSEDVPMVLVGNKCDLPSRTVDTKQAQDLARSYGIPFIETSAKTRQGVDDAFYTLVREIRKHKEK
Sequence of KRas G12D (P01116 1-169 isoform P01116-2 G12D): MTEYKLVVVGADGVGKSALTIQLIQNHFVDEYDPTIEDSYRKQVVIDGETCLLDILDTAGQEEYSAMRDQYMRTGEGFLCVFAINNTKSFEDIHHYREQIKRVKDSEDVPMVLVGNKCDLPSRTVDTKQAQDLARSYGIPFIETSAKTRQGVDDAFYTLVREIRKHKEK

As for `CCc1c(F)ccc2cc(O)cc(N3CCc4c(nc(OC[C@@]56CCCN5C[C@H](F)C6)nc4N4CCCn5nc(C(=O)N(C)C)nc5C4)C3)c12` [Example 403, 8-(7-(8-ethyl-7-fluoro-3-hydroxynaphthalen-1-yl)-2-(((2R,7aS)-2-fluorohexahydro-1H-pyrrolizin-7a-yl)methoxy)-5,6,7,8-tetrahydropyrido[3,4-d]pyrimidin-4-yl)-N,N-dimethyl-6,7,8,9-tetrahydro-5H-[1,2,4]triazolo[1,5-a][1,4]diazepine-2-carboxamide], the half-maximal inhibitory concentration (IC50) in test [1] was 2 nM; in test [2], less than 2 nM; in test [3], 7 nM; in test [7] it was 2940 nM; in test [8] it was less than 2 nM; in test [9] it was 3 nM. Moreover, the 50% inhibitory concentration (IC50) in test [11] is 18 nM; in [13] it was less than 2 nM; in [14], 44 nM; in [15], 2 nM. The inhibition at 0.01 µM in test [4], in [5], in [6], in test [10], in test [12] and in test [16] was 100% each time.
With `CCc1c(F)ccc2cc(O)cc(N3CCc4c(nc(OC[C@@]56CCCN5C[C@H](F)C6)nc4N4CCCn5nc(NC)c(F)c5C4)C3)c12` [Example 406, 5-ethyl-6-fluoro-4-(4-(3-fluoro-2-(methylamino)-7,8-dihydro-4H-pyrazolo[1,5-a][1,4]diazepin-5(6H)-yl)-2-(((2R,7aS)-2-fluorohexahydro-1H-pyrrolizin-7a-yl)methoxy)-5,6-dihydropyrido[3,4-d]pyrimidin-7(8H)-yl)naphthalen-2-ol], the half-inhibitory concentration (IC50) in [1] is 24.6 nM; in test [2], less than 2 nM; in [3], 100 nM; in test [7] it was more than 10000 nM; in [8], 3 nM; in [9], 110 nM. For the same compound, the half-inhibitory concentration (IC50) in test [11] was 143 nM; in [13] it was less than 2 nM; in test [14], 331 nM; in test [15] it was 59 nM. Also, the inhibition at 0.01 µM in test [4] was 73%; in test [5], 82%; in [6] it was 68%; in test [10], 70%; in test [12] it was 66%; in test [16], 87%.
In the case of `CCc1c(F)ccc2cc(O)cc(N3CCc4c(nc(OC[C@@]56CCCN5C[C@H](F)C6)nc4N4CCCn5nc(NC(C)C)cc5C4)C3)c12` [Example 407, 5-ethyl-6-fluoro-4-(2-(((2R,7aS)-2-fluorohexahydro-1H-pyrrolizin-7a-yl)methoxy)-4-(2-(isopropylamino)-7,8-dihydro-4H-pyrazolo[1,5-a][1,4]diazepin-5(6H)-yl)-5,6-dihydropyrido[3,4-d]pyrimidin-7(8H)-yl)naphthalen-2-ol], the half-inhibitory concentration (IC50) in test [1] was 32.9 nM; in test [2], 2 nM; in test [3], 86 nM; in [7], more than 10000 nM; in [8], 4 nM; in test [9], 124 nM. In addition, the IC50 in test [11] came out at 151 nM; in test [13], 4 nM; in test [14] it was 593 nM; in [15], 97 nM. Besides, the inhibition at 0.01 µM in test [4] was determined as 61%; in test [5], 71%; in test [6] it was 56%; in [10] it was 56%; in test [12] it was 56%; in test [16], 78%.
Consider `CCc1c(F)ccc2cc(O)cc(N3CCc4c(nc(OC[C@@]56CCCN5C[C@H](F)C6)nc4N4CCCn5nc6c(c5C4)CCNC6=O)C3)c12` [Example 408, 2-(7-(8-ethyl-7-fluoro-3-hydroxynaphthalen-1-yl)-2-(((2R,7aS)-2-fluorohexahydro-1H-pyrrolizin-7a-yl)methoxy)-5,6,7,8-tetrahydropyrido[3,4-d]pyrimidin-4-yl)-2,3,4,5,10,11-hexahydro-1H-pyrido[3′,4′:3,4]pyrazolo[1,5-a][1,4]diazepin-8(9H)-one], for which the IC50 is 21.7 nM in test [1]; less than 2 nM in test [2]; 166 nM in [3]; 5510 nM in [7]; less than 2 nM in test [8]; 363 nM in test [9]. The half-inhibitory concentration (IC50) in test [11] is 594 nM; in test [13], less than 2 nM; in [14], 1040 nM; in [15], 90 nM. The inhibition at 0.01 µM was determined as 98% in test [4]; 100% in [5]; 98% in test [6]; 97% in test [10]; 97% in test [12]; 99% in test [16].
Take `CCc1c(F)ccc2cc(O)cc(N3CCc4c(nc(OC[C@@]56CCCN5C[C@H](F)C6)nc4N4CCCn5nc6c(c5C4)CCCN(C)C6=O)C3)c12` [Example 409, 2-(7-(8-ethyl-7-fluoro-3-hydroxynaphthalen-1-yl)-2-(((2R,7aS)-2-fluorohexahydro-1H-pyrrolizin-7a-yl)methoxy)-5,6,7,8-tetrahydropyrido[3,4-d]pyrimidin-4-yl)-9-methyl-2,3,4,5,9,10,11,12-octahydroazepino[3′,4′:3,4]pyrazolo[1,5-a][1,4]diazepin-8(1H)-one]: the IC50 in test [1] is 3.1 nM; in test [2], less than 2 nM; in [3], 7 nM; in [7] it was 1220 nM; in test [8], less than 2 nM; in [9], 22 nM. Moreover, the 50% inhibitory concentration (IC50) was 57 nM in test [11], less than 2 nM in [13], 212 nM in test [14] and 8 nM in test [15]. Besides, the inhibition at 0.01 µM in test [4], in test [5], in [6], in [10], in test [12] and in test [16] was 100% throughout.
Turning to `CCc1c(F)ccc2cc(O)cc(N3CCc4c(nc(OC[C@@]56CCCN5C[C@H](F)C6)nc4N4CCCn5nc(C(=O)OC)cc5C4)C3)c12` [Example 411, methyl 5-(7-(8-ethyl-7-fluoro-3-hydroxynaphthalen-1-yl)-2-(((2R,7aS)-2-fluorohexahydro-1H-pyrrolizin-7a-yl)methoxy)-5,6,7,8-tetrahydropyrido[3,4-d]pyrimidin-4-yl)-5,6,7,8-tetrahydro-4H-pyrazolo[1,5-a][1,4]diazepine-2-carboxylate], the half-maximal inhibitory concentration (IC50) in test [1] is 30.1 nM; in [2] it was less than 2 nM; in test [3] it was 54 nM; in test [7], 6540 nM; in test [8] it was less than 2 nM; in test [9] it was 111 nM. For the same compound, the IC50 in test [11] was 260 nM; in test [13] it was less than 2 nM; in [14], 423 nM; in test [15] it was 31 nM. Also, the inhibition at 0.01 µM in test [4] is 74%; in test [5] it was 88%; in test [6], 73%; in test [10] it was 75%; in test [12], 71%; in [16], 90%.

Usually IC50 stands for the concentration needed to halve the response being measured. A low value points to inhibition by little substance. By inhibition is commonly meant how much of the control response was suppressed.
